The test has as its system Sprague-Dawley rats. The experiment in a line: Blood glucose depression after intracolonic bovine pancreatic insulin given with absorption enhancer. The format is in vivo. To be noted: enhancer 0 mg/kg (insulin alone), rats n=3. The protocol: It is neutralized by 1 equivalent of sodium hydroxide. The pH is adjusted to 7-8 by 1N HCl and saturated sodium bicarbonate. Bovine pancreatic insulin (1.75 mL; Sigma, 10 mg/mL; in pH 8.2 HEPES buffer) is added and mixed by gentle swirling. The solution density is determined so that the required dose may be calculated.
The solution is then given to Sprague-Dawley rats (2-day fasting, female, 250-300 g, n=3), intracolonically. Blood samples are taken from the tail vein and glucose levels measured using an OneTouch® UltraSmart® blood glucose meter.

Turning to “bovine pancreatic insulin: Bovine pancreatic insulin (Sigma, 10 mg/mL; in pH 8.2 HEPES buffer), the active agent co-administered”, the “Blood glucose, % of basal level” value reads like this: (0 min) 100 % of basal level; (30 min) 94 ± 4 % of basal level; (60 min) 102 ± 7 % of basal level; (90 min) 105 ± 3 % of basal level; (120 min) 107 ± 7 % of basal level; (150 min) 94 ± 7 % of basal level. For the same substance, the “Blood glucose, % of basal level” value (180 min) is reported as 111 ± 7 % of basal level; the “Blood glucose, % of basal level” value (210 min) was 113 ± 4 % of basal level; the “Blood glucose, % of basal level” value (240 min) was 100 ± 7 % of basal level.

Source of the values: US9149530B2, “Compositions and methods for enhancing active agent absorption” (Nexus Pharma, Inc., priority 2006, dated 2015).
